Measurements reported in patent US12098179B2, “Antigenic peptides deriving from urocortin 3 and uses thereof for the diagnosis and treatment of type 1 diabetes” (INSERM (INSTITUT NATIONAL DE LA SANTÉ ET DE LA RECHERCHE …, priority 2018, dated 2024).
Ends that are not written are not given here.

Assays:
[1] = tested on: circulating CD8^+ T cells; test: ex vivo combinatorial HLA-A2 MMr assay on PBMCs; assay type: cell-based, human
Method: All peptides were synthesized at >90% purity (Synpeptides). HLA-A2 MMrs were produced as described (Leisner et al., 2008) and staining performed in the presence of 50 nM dasatinib (Lissina et al., 2009), as described (Culina et al., 2018). Briefly, cryopreserved PBMCs were magnetically depleted of CD8^− cells (StemCell Technologies), stained with the combinatorial MMr panels (Hadrup et al., 2009) and acquired using a FACSAria III cytometer.

[2] = tested on: circulating CD8^+ T cells; test: ex vivo HLA-A3 multimer (MMr) staining of PBMCs; assay type: cell-based, human; conditions: HLA-A3^+ T1D and healthy donors
Method: HLA-A3 MMrs were produced and used as described (Gonzalez-Duque, Cell Metab 2018). Each peptide-HLA-A3 complex was used at a final concentration of 8-27 nM and conjugated with fluorochrome-labeled streptavidin at a 1:4 ratio. The concentration of each fluorescent MMr was corrected for the variable staining index of each streptavidin, in order to obtain a distinct double-MMr^+ population for each fluorochrome pair. Compensations were set using fluorescence-minus-one samples (i.e. omitting one streptavidin at a time). The combinatorial MMr panel was first set up by staining HLA-A3^+ PBMCs with the same set of fluorescent streptavidin-labeled MMrs, all loaded with the Flu NP265-273 epitope, which yielded a similar MMr^+CD8^+ T-cell frequency for all the 15 MMr combination pairs.
PBMCs were thawed at 37° C. and immediately diluted in pre-warmed AIM-V medium. Following centrifugation and one additional wash in AIM-V, PBMCs were counted and rested in the presence of 50 nM dasatinib for 30 min at 37° C. to prevent internalization of T-cell receptors before magnetic depletion of CD8^− cells (StemCell Technologies). Staining was performed for 20 min at 20° C. in […] PBS-dasatinib for 10^7 cells with combinatorial double-coded MMr panels, followed, without washing, by CD3-APC-H7 (RRID AB_1645475), CD8-PE-Cy7 (AB_396852), CD45RA-FITC (AB_395879), CCR7-BV421 (AB_2728119) monoclonal antibodies and Live/Dead Aqua (ThermoFisher) staining at 4° C. for 20 min. After one wash, cells were acquired using a FACSAria III cytometer. […] Flow cytometry data were analyzed with FlowJo v10 and Graphpad Prism 7.0 software. Cells were sequentially gated on small lymphocytes, singlets, live cells (Live/Dead Aqua l, CD3^+CD8^+ T cells and total PE^+, PE-CF594^+, APC^+, BV650^+, BV711^+ and BV786^+ MMr^+ T cells. Using Boolean operators, these latter gates allowed to selectively visualize each double-MMr^+ population by including only those events positive for the corresponding fluorochrome pair. For example, SCG3166-174 MMr^+ cells (PE^+PE-CF594^+) were visualized by gating on events that were PE^+PE-CF594^+APC^−BV650^−BV711^−BV786^−. Events negative for all MMr fluorochromes (PE^−PE-CF594^−APC^−BV650^−BV711^−BV786^−) were represented in the same PE/PE-CF-594 dot plot to set the double-MMr^+ gate. CD45RA and CCR7 staining was subsequently visualized by gating on these MMr^+ cells.

[3] = tested on: islet-infiltrating CD8^+ T cells of NOD mice; test: IFN-γ recall assay of islet-infiltrating cells against peptide-pulsed K^d+ L cells; assay type: cell-based, mouse; conditions: 12-16-week-old NOD females; for percentage of IFN-γ^+CD8^+ cells, median / percentage of IFN-γ^+CD8^+ cells, positive range: 6 h recall; for positive mice (IFN-γ^+CD8^+ cells >1.8%): positive / tested
From the text: Peptides predicted to be restricted by the murine MHC Class I K^d molecule were identified using prediction algorithms and scanning of the whole murine protein sequence. Peptides were first tested in pools, and positive pools subsequently deconvoluted for reactivity against individual peptides. To this end, islets were isolated from 12-16-week-old NOD mice by collagenase digestion and put in culture with recombinant human IL-2 (Proleukin, Novartis) for 5 days as described (Brezar et al, Eur J Immunol 2012). Cells exiting the islets were subsequently collected and subjected to recall assays against K^d+ L antigen-presenting cells pulsed with the indicated peptides for 6 h in the presence of brefeldin-A, followed by intracellular staining for IFN-γ. The TUM, Ins B15-23 and IGRP 206-214 peptides were included as negative control and positive controls, respectively.

[4] = tested on: pancreas-infiltrating cells of HLA-A2^+ T1D patients; test: in-situ HLA-A2 MMr staining on pancreas sections; assay type: cell-based, human; conditions: 2 HLA-A2^+ T1D cases (nPOD)
Method: In-situ staining was performed as described (Culina et al., 2018). Unfixed, frozen sections were dried for 2 h, loaded with 1 μg of MMrs overnight at 4° C., washed gently with phosphate-buffered saline and fixed in 2% paraformaldehyde for 10 min. After a further wash, endogenous peroxidase activity was blocked with 0.3% H2O2. Sections were then incubated serially with rabbit anti-phycoerythrin, horseradish peroxidase-conjugated swine anti-rabbit and 3,3′-diaminobenzidine tetrahydrochloride substrate (ThermoFisher). After a final wash, sections were counterstained with hematoxylin, dehydrated via sequential passages in 95-100% ethanol and xylene, mounted and analyzed using a Nikon Eclipse Ni microscope with NIS-Elements Analysis D software v4.40.

[5] = HLA-A2^+ healthy donors, screening
[6] = HLA-A2^+ recent-onset T1D and healthy subjects (n=10/each)

CHGA344-352: HLA-A2-restricted HLA-eluted β-cell peptide from chromogranin A (KMDQLAKEL)
cognate naïve CD8^+ T-cell repertoire (frequency 1-50/10^6, clustered MMr staining) validated [1, 5]: validated

FLSGAVNRL [SCG5-009186-194]
cognate naïve CD8^+ T-cell repertoire (frequency 1-50/10^6, clustered MMr staining) validated [1, 5]: validated | frequency of MMr^+ cells (in words) [1, 6]: particularly high and clustered

GQWEDASLLSK
validation as HLA-A3-restricted CD8^+ T-cell epitope [2]: positive hits

GYRDINEIDI [Pcsk2 109-118, murine Pcsk2 peptide predicted to be restricted by K^d]
percentage of positive mice [3]: 50% | percentage of IFN-γ^+CD8^+ cells, median [3]: 1.8% | percentage of IFN-γ^+CD8^+ cells, positive range [3]: 1.9-4.3%

IGRP 206-214: positive control peptide in NOD recall assay (VYLKTNVFL; UniProt Q9Z186 206-214, looked up, fragment) [reference compound]
percentage of positive mice [3]: 100% | percentage of IFN-γ^+CD8^+ cells, median [3]: 12.5% | percentage of IFN-γ^+CD8^+ cells, positive range [3]: 4.5-25.3% | positive mice (IFN-γ^+CD8^+ cells >1.8%) [3]: 13/13

ISL1276-284: HLA-A2-restricted HLA-eluted peptide from insulin gene enhancer protein ISL1 (GLQANPVEV)
in-situ MMr staining of pancreas sections [4]: MMr^+ cells could be detected | cognate naïve CD8^+ T-cell repertoire (frequency 1-50/10^6, clustered MMr staining) validated [1, 5]: validated | median frequency detected in peripheral blood ([1]; T1D patients): 7.2×10^−6

KCNK16129-137: HLA-A2-restricted HLA-eluted β-cell peptide from KCNK16 (ALLGIPLNV)
cognate naïve CD8^+ T-cell repertoire (frequency 1-50/10^6, clustered MMr staining) validated [1, 5]: validated

KIF1A860-868: HLA-A3-restricted islet peptide from KIF1A (LLYPVPLVH)
validation as HLA-A3-restricted CD8^+ T-cell epitope [2]: positive hits

KIF1A1347-1355: HLA-A2-restricted HLA-eluted β-cell peptide from Kinesin Family Member 1A (VLDTSVAYV)
cognate naïve CD8^+ T-cell repertoire (frequency 1-50/10^6, clustered MMr staining) validated [1, 5]: validated

LYDESCSSTL [Pcsk2 341-350, murine Pcsk2 peptide predicted to be restricted by K^d]
percentage of positive mice [3]: 75% | percentage of IFN-γ^+CD8^+ cells, median [3]: 3.3% | percentage of IFN-γ^+CD8^+ cells, positive range [3]: 1.9-5.2% | positive mice (IFN-γ^+CD8^+ cells >1.8%) [3]: 6/8

MLMPVHFLL
cognate naïve CD8^+ T-cell repertoire (frequency 1-50/10^6, clustered MMr staining) validated [1, 5]: validated | frequency of MMr^+ cells (in words) [1, 6]: particularly high and clustered

PCSK230-38: HLA-A2-restricted HLA-eluted β-cell peptide from proprotein convertase 2 (FTNHFLVEL)
cognate naïve CD8^+ T-cell repertoire (frequency 1-50/10^6, clustered MMr staining) validated [1, 5]: validated

PNMA250-58: HLA-A3-binding islet peptide not validated as CD8+ T-cell epitope (RLLGKIFRK)
validation as HLA-A3-restricted CD8^+ T-cell epitope [2]: single exception

PPI6-14: known preproinsulin β-cell epitope used as β-cell positive control (RLLPLLALL; UniProt P01308 6-14, looked up, fragment) [reference compound]
frequency of CD8^+ T cells recognizing the peptide [1, 5]: 1-50 /10^6 CD8^+ T cells | frequency of circulating CD8^+ T cells recognizing the peptide ([1]; HLA-A2^+ recent-onset T1D and healthy subjects (n=10/each), similar in both): 1-50 /10^6 CD8^+ T cells

RLKPSLVGK [SCG5-009193-201, HLA-A3 restricted peptide from mRNA splice variant SCG5-009]
validation as HLA-A3-restricted CD8^+ T-cell epitope [2]: positive hits

RYLEHVQAVI [Pcsk2 501-510, murine Pcsk2 peptide predicted to be restricted by K^d]
percentage of positive mice [3]: 63% | percentage of IFN-γ^+CD8^+ cells, median [3]: 2.7% | percentage of IFN-γ^+CD8^+ cells, positive range [3]: 2.1-8.0% | positive mice (IFN-γ^+CD8^+ cells >1.8%) [3]: 5/8

SCG3166-174: HLA-A3-restricted islet peptide from secretogranin III (AVFDKIVSK)
validation as HLA-A3-restricted CD8^+ T-cell epitope [2]: positive hits

SCG5186-195: HLA-A2-restricted HLA-eluted β-cell peptide from SCG5 (7B2) (YLQGQRLDNV)
cognate naïve CD8^+ T-cell repertoire (frequency 1-50/10^6, clustered MMr staining) validated [1, 5]: validated

TYFLLPLLL [Ucn3 5-13, murine Ucn3 peptide predicted to be restricted by K^d]
percentage of positive mice [3]: 67% | percentage of IFN-γ^+CD8^+ cells, median [3]: 2.3% | percentage of IFN-γ^+CD8^+ cells, positive range [3]: 2.1-8.6% | positive mice (IFN-γ^+CD8^+ cells >1.8%) [3]: 8/12

VFSCLNTAL [Ucn3 32-40, murine Ucn3 peptide predicted to be restricted by K^d]
percentage of positive mice [3]: 67% | percentage of IFN-γ^+CD8^+ cells, median [3]: 1.9% | percentage of IFN-γ^+CD8^+ cells, positive range [3]: 1.9-3.3% | positive mice (IFN-γ^+CD8^+ cells >1.8%) [3]: 8/12

ZnT8186-184: positive control islet peptide (VAANIVLTV; UniProt Q8IWU4 186-194, looked up, fragment) [reference compound]
in-situ MMr staining of pancreas sections [4]: MMr^+ cells could be detected
